Laboratory results as given in patent US20140221397A1, “FIBROSIS INHIBITOR” (Nippon Shinyaku Co., Ltd., priority 2008, published 2014).

Columns and labels:
[1] = test system: interstitial pneumonia model mice induced by bleomycin; conditions: Non-Patent Document 1; cited from earlier work
[2] = test system: type I collagen al chain (COL 1α1) mRNA; assay: COL 1α1 mRNA expression in human lung fibroblasts stimulated by TGF β1, real-time quantitative PCR (Test Example 4); assay type: cell-based; conditions: TGF β1 stimulation, 24 hours, corrected for GAPDH, FIG. 4
Experimental: (§1) Human lung fibroblasts were seeded in 24-well plate at 1×10^5 cells/well and incubated in growth medium in the same way as in Test Example 1 overnight. The fibroblasts were washed once with 500 μL of basal medium, and added with 500 μL of basal medium followed by incubation for 24 hours. They were further washed once with 500 μL of basal medium and then 400 μL/well of basal medium was added. A 1, 10 or […] of the compound A prepared by the same manner as in Test Example 3 was added in an amount of 50 μL to each well. For the non-stimulated control group and the control group, DMSO which was diluted 100-fold with basal medium was added in an amount of 50 μL. […] Using the cDNA prepared as above as a template, expressed amount of mRNA for type I collagen al chain (COL 1α1), type I collagen α2 chain (COL 1α2), α smooth muscle actin (ACTA), TGF β1 and glyceraldehydes 3-phosphate dehydrogenase (GAPDH) were measured by means of a real-time quantitative PCR method. The real-time quantitative PCR was conducted using Platinum SYBR Green qPCR Super-Mix-UDG with ROX (manufactured by Invitrogen) and a primer being specific to each gene in accordance with the manual attached to the Platinum SYBR Green qPCR Super-Mix-UDG with ROX using ABI PRISM 7000 (Applied Biosystems). […]

[3] = test system: Human Lung fibroblasts; assay: Collagen production (PIP) in human lung fibroblasts stimulated by TGF β1 (Test Example 3); assay type: cell-based; conditions: TGF β1 stimulation, 10 μL of 0.1, 1, 10 or 100 μM solution per well, 48 hours, FIG. 3
Experimental: Human lung fibroblasts were seeded in 96-well plate at 5×10^3 cells/well and incubated in the growth medium in the same way as in Test Example 1 overnight. The fibroblasts were washed once with 100 μL of basal medium and 100 μL of basal medium was added thereto followed by incubating for 24 hours. They were further washed once with 100 μL of basal medium and then 80 μL/well of basal medium was added. A 0.1, 1, 10 or 100 μM solution of the compound A was added in an amount of 10 μL to each well. […] After incubating for 48 hours, the medium was recovered for measuring the concentration of the type I pro-collagen C terminal peptide (PIP) in the medium, and after an addition of 100 μL of the basal medium, the cell proliferation activity was measured using 3-(4,5-dimethyl-2-thiazolyl)-2,5-diphenyl-2H-tetrazolium bromide (MTT) (manufactured by Nacalai Tesque). Measurement of the cell proliferation activity was conducted in such a manner that 10 μL of a 5 mg/mL MTT stock solution was added to each well, and after incubation for 4 hours, 100 μL of a 0.04M isopropanol solution of hydrochloric acid was added to each well, followed by the absorbance measurement at 595 nm (reference wavelength: 655 nm) using a microplate reader. […]

[4] = test system: α smooth muscle actin (ACTA) mRNA; assay: ACTA mRNA expression in human lung fibroblasts stimulated by TGF β1, real-time quantitative PCR (Test Example 4); assay type: cell-based; conditions: TGF β1 stimulation, 24 hours, corrected for GAPDH, FIG. 6
Experimental: as §1

[5] = test system: Human Lung fibroblasts; assay: Proliferation of human lung fibroblasts stimulated by TGF-α (Test Example 2); assay type: cell-based; conditions: TGF-α stimulation, 10 μL of a 1 μM solution per well, 48 hours, FIG. 2
Experimental: Human lung fibroblasts were incubated in growth medium under the condition of 37° C. and 5% CO2. The human lung fibroblasts were seeded in 96-well plate at 3×10^3 cell/well and incubated overnight in growth medium.
The fibroblasts were washed once with 100 μL of phosphate-buffered saline. Then basal medium was added thereto and incubation was conducted for 24 hours. They were further washed with 100 μL of phosphate-buffered saline once and then basal medium was added in an amount of 80 μL/well. Ten μL of a 1 μM solution of the compound A was added to each well and incubated for 2 hours. The solution used therefor was prepared in such a manner that the compound A was previously dissolved in DMSO and the resulting 1 mM solution was diluted 100-fold with basal medium. For the non-stimulated control group and the control group, DMSO which was diluted 100-fold with the basal medium was used.
Then a 100 ng/mL solution of transforming growth factor-α (TGF-α) (manufactured by Chemicon) was added in an amount of 10 μL to each well and incubated for 48 hours. For a non-stimulated control group, the basal medium was used.
After incubating for 48 hours, absorbance at 490 nm was measured, in the same way as in Test Example 1, using a reagent for the analysis of cell proliferation activity. For the measurement of the absorbance, a microplate reader was used.

[6] = test system: type I collagen α2 chain (COL 1α2) mRNA; assay: COL 1α2 mRNA expression in human lung fibroblasts stimulated by TGF β1, real-time quantitative PCR (Test Example 4); assay type: cell-based; conditions: TGF β1 stimulation, 24 hours, corrected for GAPDH, FIG. 5
Experimental: as §1

[7] = test system: Human skin fibroblasts; assay: Collagen production (PIP) in human skin fibroblasts stimulated by TGF β1 (Test Example 6); assay type: cell-based; conditions: TGF β1 stimulation, 10 μL of 0.1, 1, 10 or 100 μM solution per well, 48 hours, FIG. 9
Experimental: Human skin fibroblasts (manufactured by Kurabo; hereinafter, the same product will be used) were seeded in 96-well plate at 5×10^3 cells/well and incubated in a Dulbecco's modified Eagle's medium (DMEM medium; manufactured by Nippon Seiyaku; hereinafter, the same product will be used) containing 10% of bovine fetal serum under the condition of 37° C. and 5% CO2 overnight. The human skin fibroblasts were washed once with an DMEM medium containing no bovine fetal serum (hereinafter, referred to as “serum-free DMEM medium”), and 100 μL of serum-free DMEM medium was added thereto followed by incubation for 24 hours. After washing with serum-free DMEM medium once more, serum-free DMEM medium was added in an amount of 80 μL/well. Ten μL of the 0.1, 1, 10 or 100 μM solution of the compound A prepared by the same method as in Test Example 3 was added to each well. […] After incubating for 48 hours, cell proliferation activity (absorbance) was measured by the MTT method, and PIP concentration in the medium was measured in the same way as in Test Example 3. The evaluation of this test was carried out using the value (index for production of collagen) calculated as a relative value where a mean value in the non-stimulated control group was defined as 1 after correcting the measured value of PIP concentration using the cell proliferation activity value (absorbance).

[8] = test system: TGF β1 mRNA; assay: TGF β1 mRNA expression in human lung fibroblasts stimulated by TGF β1, real-time quantitative PCR (Test Example 4); assay type: cell-based; conditions: TGF β1 stimulation, 24 hours, corrected for GAPDH, FIG. 7
Experimental: as §1

[9] = test system: Human Lung fibroblasts; assay: Proliferation of human lung fibroblasts stimulated by EGF (Test Example 1); assay type: cell-based; conditions: EGF stimulation, 10 μL of a 100 μM solution per well, 48 hours, FIG. 1
Experimental: Human Lung fibroblasts (manufactured by Lonza Walkersville; hereinafter, the same product will be used) were cultured in growth medium, which consisted of basal medium for human lung fibroblasts (manufactured by Lonza Walkersville; hereinafter, the same product will be used and referred to as “basal medium”) with FGM-2 additional factor set (manufactured by Lonza Walkersville; hereinafter, the same product will be used) under the condition of 37° C. and 5% CO2. The human lung fibroblasts were seeded in 96-well plate at 1×10^3 cell/well and incubated overnight in growth medium.
The fibroblasts were washed once with 100 μL of phosphate-buffered saline (manufactured by Nissui Seiyaku; hereinafter, the same product will be used) and 100 μL of basal medium was added thereto followed by incubation for 24 hours. They were further washed with 100 μL of phosphate-buffered saline once and then basal medium was added in an amount of 80 μL/well. Ten μL of a 100 μM solution of the compound A or the compound B was added to each well and incubated for 2 hours. […]
After incubating for 48 hours, absorbance at 490 nm was measured using Cell Titer 96, AQueous Assay (manufactured by Promega) for the analysis of cell proliferation activity. For the measurement of the absorbance, a microplate reader (Benchmark, manufactured by Bio-Rad; hereinafter, the same one will be used) was used.

[10] = test system: Rat renal interstitial cells (NRF 49F cells); assay: Proliferation of rat renal interstitial cells stimulated by PDGF BB, MTT (Test Example 5); assay type: cell-based; conditions: PDGF BB stimulation, 10 μL of a 100 μM solution per well, 48 hours, FIG. 8
Experimental: Rat renal interstitial cells (NRF 49F cells) were seeded in 96-well plate at 1×10^4 cells/well and incubated in an Minimum Essential Medium (MEM medium; manufactured by Nippon Seiyaku; hereinafter, the same product will be used) containing 10% of bovine fetal serum (manufactured by JRH Bioscience; hereinafter, the same product will be used) under the condition of 37° C. and 5% CO2 overnight. The cells were washed once with an MEM medium containing no bovine fetal serum (hereinafter, referred to as “serum-free MEM medium”), and 100 μL of the serum-free MEM medium was added thereto followed by incubation for 24 hours. After washing with serum-free MEM medium once, serum-free MEM medium was added in an amount of 80 μL/well. A 100 μM solution of the compound A prepared by the same method as in Test Example 1 was added in an amount of 10 μL to each well. For the non-stimulated control group and the control group, DMSO which was diluted 100-fold with serum-free MEM medium was added in an amount of 10 μL. […] After incubating for 48 hours, cell proliferation activity (absorbance) was measured by an MTT method in the same way as in Test Example 3. The evaluation of this test was carried out using the value (cell proliferation level) expressed as a relative value where a mean value of absorption of the non-stimulating control group was defined as 1.

O=C(O)COc1cccc2c1CCC=C2CCO/N=C(\c1ccccc1)c1cccnc1 [ONO-1301]
effect for interstitial pneumonia [1]: inhibitive effect

CC(C)N(CCCCOCC(=O)O)c1cnc(-c2ccccc2)c(-c2ccccc2)n1 [compound A, 2-{4-[N-(5,6-diphenyl-pyrazin-2-yl)-N-isopropylamino]butyloxy}acetic acid]
COL 1α1 mRNA expression level as compared with the control group [2]: decreased
collagen production (index for collagen production, PIP corrected for cell proliferation activity) as compared with the control group [3]: significantly decreased
ACTA mRNA expression level as compared with the control group [4]: decreased
cell proliferation activity (absorbance at 490 nm) as compared with the control group [5]: significantly decreased
COL 1α2 mRNA expression level as compared with the control group [6]: decreased
production of collagen (index for production of collagen, PIP corrected for cell proliferation activity) as compared with the control group [7]: significantly decreased
TGF β1 mRNA expression level as compared with the control group [8]: decreased
cell proliferation activity (absorbance at 490 nm) as compared with the control group [9]: significantly decreased
cell proliferation level as compared with the control group [10]: significantly decreased

CC(C)N(CCCCOCC(=O)NS(C)(=O)=O)c1cnc(-c2ccccc2)c(-c2ccccc2)n1 [compound B, 2-{4-[N-(5,6-diphenylpyrazin-2-yl)-N-isopropylamino]butyl-oxy}-N-(methylsulfonyl)acetamide]
cell proliferation activity (absorbance at 490 nm) as compared with the control group [5]: inhibitive effects
cell proliferation activity (absorbance at 490 nm) as compared with the control group [9]: significantly decreased
